{
  "source": "patent US6903092B2",
  "about": "“Naphthamide neurokinin antagonists for use as medicaments” (priority 2000, dated 2005)",
  "origin": "cited, not measured here",
  "key": {"[1]": {"assay": "not given", "remark": "listed apart in the source"}, "[2]": {"settings": "Vassout et al, Neuropeptides 26/S1: 38, 1994; only at 30 mg/kg bid"}, "[3]": {"assay": "not given", "remark": "listed apart in the source"}, "[4]": {"system": "Marmoset", "settings": "Walsh et al., Psychopharmacology 121: 186-191, 1995"}, "[5]": {"settings": "Vassout et al, Neuropeptides 26/S1: 38, 1994"}, "[6]": {"settings": "Teixeira et al., Eur J Pharmacol 311(1): 7-14, 1996"}, "[7]": {"settings": "Stratton et al., Eur. J. Pharmacol. 250: R11-12, 1993"}, "[8]": {"settings": "Walsh et al., Psychopharmacology 121: 186-191, 1995"}},
  "note": "Like-named read-outs stand apart in the source and are kept apart here. Square brackets hold non-standard residues; d marks the D form. Peptide text beside a SMILES is read from it. * marks the point of attachment. Cyclohexanecarbonyl = O=C(C1CCCCC1)*",
  "data": [
    {"smiles": "Cc1cc(C)cc(C(=O)N2CC[C@H](NCc3ccnc4ccccc34)C[C@H]2Cc2ccccc2)c1", "note": "[CGP 49823]", "values": [
      {"measurement": "Outcome, Elevated plus-maze", "setting": "[5]", "result": "inactive"},
      {"measurement": "Outcome, Social interaction", "setting": "[1]; File, Pharm Bio B 58(3): 747-752, 1997", "result": "anxiolytic"},
      {"measurement": "Outcome, Social interaction test", "setting": "[1]; [5]", "result": "anxiolytic"},
      {"measurement": "Outcome, Forced swim test (depression model)", "setting": "[2]", "result": "antidepressant"}
    ]},
    {"smiles": "CN(Cc1ccccc1)C(=O)[C@H](Cc1ccc2ccccc2c1)NC(=O)[C@@H]1C[C@@H](O)CN1C(=O)c1cn(C)c2ccccc12", "note": "[FK888]", "values": [
      {"measurement": "Outcome, Elevated plus-maze", "setting": "[6]", "result": "anxiolytic"}
    ]},
    {"smiles": "C[C@H](NC(=O)CNC(=O)C1CCCCC1)C(=O)N[C@H](Cc1c[nH]c2ccccc12)C(=O)N[C@@H](Cc1ccccc1)C(=O)N(C)C", "note": "[GR100679] (Cyclohexanecarbonyl-GA[dW]F-NMe2)", "values": [
      {"measurement": "Outcome, Light-dark box", "setting": "[3]; [7]", "result": "anxiolytic"}
    ]},
    {"smiles": "COC1(C[S@@+]([O-])c2ccccc2)CCN(CCc2c[nH]c3ccc(F)cc23)CC1", "note": "[GR159897]", "values": [
      {"measurement": "Outcome, Light-dark box", "setting": "[3]; [8]", "result": "anxiolytic"},
      {"measurement": "Outcome, Marmoset human intruder", "setting": "[4]", "result": "anxiolytic"}
    ]},
    {"smiles": "CC(=O)NC1(c2ccccc2)CCN(CC[C@H](CN(C)C(=O)c2ccccc2)c2ccc(Cl)c(Cl)c2)CC1", "note": "[SR48968]", "values": [
      {"measurement": "Outcome, Elevated plus-maze", "setting": "[6]", "result": "anxiolytic"},
      {"measurement": "Outcome, Light-dark box", "setting": "[3]; [7]", "result": "anxiolytic"},
      {"measurement": "Outcome, Light-dark box", "setting": "[3]; [8]", "result": "anxiolytic"},
      {"measurement": "Outcome, Marmoset human intruder", "setting": "[4]", "result": "anxiolytic"}
    ]}
  ]
}
